The values below come from patent US6441029B1, “Method of suppressing tumor growth with combinations of isoprenoids and statins” (Wisconsin Alumni Research Foundation, priority 1997, dated 2002).

Where two headings read alike, the source gives them in different places. Marks after values point to notes of the source that are not given here. Where only a bound is given, the exact number is not on record here.

In data set [1] the test system is Murine B16(F10) melanoma cells. In words: IC50 determinations: net increase in 48 hour melanoma cell count. It counts as cell-based. As to the method: (§1) Cultures, seeded with 1-1.5×10^5 cells, were incubated for 24 hours at 37° C. in a humidified atmosphere of 5% CO2. Isoprenoids, dissolved in absolute ethanol, were added at 24 hours (0 time); all cultures contained 5 mL ethanol/L ([…]). The cultures were incubated for an additional 48 hours. The media was removed and the monolayers were washed twice with Hanks' Balanced Salt Solution (Sigma) and then incubated with a trypsin-EDTA solution (Sigma) at 37° C. for 2 minutes. Trypsin was inactivated by suspending the cells in medium containing 10% fetal bovine serum (Sigma). The cells were pelleted at 250×g and resuspended in Hanks' Balanced Salt Solution. Viable cells, cells that excluded 0.4% trypan blue (GIPCOBRL), were counted with a hemocytometer; 24 hour cell counts were deducted from final cell counts to provide an estimate of the net increase in cell number.
FIG. 1 is a representative evaluation of the dose-dependent impact of five different tocols on the proliferation of melanoma B16 cells. Cultures (3 mL) seeded with 1-1.5×10^5 cells were incubated for 24 hours prior to the introduction of the tocols. Viable cells were counted at 48 hours following the addition of the tocols. The cell count at 24 hours (0 time) is shown by the dashed line. The intersection of the solid horizontal line and the line plotted for each tocol indicates the concentration at which the tocol suppressed by 50% the increase in cell number during the incubation (IC50 value). IC50 values (mean, SD and n) for all isoprenoids tested are listed on Table 1. […] The growth-suppressive potency of the individual tocotrienols was inverse to the number of methyl groups on the 6-chromanol ring: d-α-tocotrienol (methyl groups at carbons 5, 7, 8 and 2)<<d-γ-tocotrienol (methyl groups at carbons 7, 8 and 2)<d-δ-tocotrienol (methyl groups at carbons 8 and 2)<<d-2-desmethyl tocotrienol (no methyl groups) (Table 1).

The next data set relates to B16 melanoma cells. Put plainly: Paired isoprenoids, 48 hour cell count (FIG. 2A, 2B). It counts as cell-based, Murine. The method, then: as §1
We next determined that the effects of the isoprenoids on the growth of B16 melanoma cells in culture are additive, and in some cases, synergistic. FIG. 2A illustrates the additive effects of γ-tocotrienol and β-ionone on B16 melanoma cell populations. Values are means±SD, n=28; pooled SEM=36 (×10^4). Cell counts calculated to show the decreased population relative to the control are listed on the insert table.
FIG. 2B illustrates the additive effects of carvacrol and β-ionone on B16 melanoma cell populations. Values are means±SD, n=28; pooled SEM=62 (×10^4). Cell counts calculated to show the decreased population relative to the control are listed in the inset table. ^a-hMeans not sharing a superscript (a>b>c>d>e>f>g>h) are different (P<0.001). Referring to FIG. 2, B16 melanoma cells were incubated with β-ionone and d-γ-tocotrienol in one test (FIG. 2A). d-γ-Tocotrienol (7.5 μmol/L) and β-ionone (50 μmol/L) reduced the 48 hour cell count by 19% and 10% respectively (FIG. 2A). The 34% reduction in cell number achieved with the paired isoprenoids exceeded the 29% reduction predicted by the sum of the individual effects (FIG. 2A, inset). At higher concentrations d-γ-tocotrienol (15 μmol/L) and β-ionone (100 μmol/L) reduced the 48 hour cell count by 34% and […] respectively; the additive effect, a 68% reduction in cell number, was also greater than the sum of the individual effects (59%) (FIG. 2A, inset).
Carvacrol (50 μmol/L) and β-ionone (75 μmol/L) reduced the 48 hour cell count by 25% and 31% respectively; the additive effect, a 48% reduction in cell number, was less than the 56% reduction predicted by the sum of the individual effects. Carvacrol (100 μmol/L) and β-ionone (150 μmol/L) reduced the cell count by 35% and 65% respectively; the additive effect, an 84% reduction in cell number, again was less than the 100% reduction predicted by the sum the individual effects (FIG. 2B, inset). The reduction in cell number predicted by the sum of the individual effects of the isoprenoids was highly correlated with that achieved with the paired isoprenoids (r=0.91, n=8, P<0.01).

The conditions of data set [2]: ubiquinone given to patients receiving 30 mg/kg or higher doses of lovastatin; cited from earlier work.
In another data set the test system is B16(F10) melanoma. The settings on record: mouse, in vivo.
Data set [3] relates to established implanted B16 melanoma. Put plainly: Experiment 2: isoprenoid-enriched diets, survival of mice bearing established melanomas. It counts as in vivo, C57BL female mice. The method, then: Where noted, β-ionone was added to the oil. The diets, mixed weekly, were stored under refrigeration. Food cups were cleaned and refilled daily.
Experiment 2: Weanling female C57BL female mice (n=60, Harlan Sprague-Dawley) were acclimated to the housing conditions and AIN-76A diet (116 μmol dl-α-tocopherol/kg diet) as described above. Tumors were implanted and the mice continued to receive the AIN-76A diet. Beginning on day 8 post-implant the mice were palpated daily for the presence of a tumor. Tumors were first detected on day 14. Random numbers were generated for assigning each mouse in a sequential subset of five to a diet. Experimental treatments provided 2 and 4 mmol d-γ-tocotrienol/kg diet. We additionally tested the impact of β-ionone (2 mmol β-ionone/kg AIN-76A diet) and that of a blend of the two isoprenoids (2 mmol each/kg diet) on the survival of the mice.
We then asked if either dietary d-γ-tocotrienol or β-ionone would prolong the survival of mice bearing implanted melanomas. Dietary treatments were initiated following the detection of solid tumors. We also asked whether these structurally diverse isoprenoids would have an additive effect on survival. The experimental groups were constructed by random assignment of each member of successive subsets of 5 mice to one of the experimental diets. […] Treatments increased median duration of survival by 42±4.5% and the mean duration of survival by 30% (P<0.005); differences between duration of survival means of the experimental groups were not significant (Table 3, FIG. 3). FIG. 3 is a survival curve for host mice receiving isoprenoid-enriched diets following the detection of a solid implanted B16 melanoma. Mean survival durations are presented on Table 4. β-ionone and γ-tocotrienol^1 treatments provided 2 mmol of the isoprenoid/kg diet; the blend provided 2 mmol of each isoprenoid/kg diet; and γ-tocotrienol^2 provided 4 mmol γ-tocotrienol/kg diet.

Data set [4] relates to Murine B16(F10) melanoma cells. The settings on record: L. He, et al., J. Nutr. 1997; read-out: IC50, proliferation of murine melanoma B16/F10 cells; cited from earlier work.
For data set [5], the system named is murine melanoma B16/F10 cells. In words: In vitro growth assays of lovastatin, β-ionone and γ-tocotrienol alone and combined (Table 5). It counts as cell-based.
The test system of data set [6] is implanted murine melanoma B16F10 tumors. To be noted: 2 mmol/kg diet; cited from earlier work.
[7] abbreviates: read-out: IC50: concentration required to suppress the increase in the population of melanoma cells by 50% during a 48 hour incubation; 48 hour incubation; means ± SD.
Where [8] appears, read: 48 hour incubation; means ± SD; read-out: IC50: concentration required to suppress the increase in the population of melanoma cells by 50% during a 48 hour incubation.

Turning to `Cc1ccc(C(C)C)cc1O` [Carvacrol, 5-isopropyl-2-methylphenol, reference compound], in data set [1] (setting [7]), the IC50 was found to be 120 ± 15 µM. For the same compound, the results for the “reduction of 48 hour cell count” value in the data set on B16 melanoma cells (50 μmol/L) and with B16 melanoma cells (100 μmol/L) were 25% and 35%, respectively.

In the case of `CC(C)=CCC/C(C)=C/CC/C(C)=C/CO` [Farnesol, trans, trans 3,7,11-trimethyl-2,6,10 dodecatrien-1-ol], in data set [1] (setting [8]), the IC50 was determined as 50 µM.

For `CC(C)=CCC/C(C)=C/CO` [Geraniol, trans 3,7-dimethyl-2,6-octadien-1-ol], the IC50 in data set [1] (setting [8]) was 150 ± 19 µM.

Take `C=C(C)C1CC=C(C=O)CC1` (centres unmarked) [Perillaldehyde, [R]-4-isopropenyl-1-carboxaldehyde cyclohexene]: the IC50 in data set [1] (setting [7]) is 120 ± 17 µM.

Regarding `C=C(C)[C@@H]1CC=C(CO)CC1` [Perillyl alcohol, [R]4-isopropenyl-1-methanol-cyclohexene], in data set [1] (setting [8]), the IC50 is 250 µM.

For `Cc1ccc(C(C)C)c(O)c1` [Thymol, 5-methyl-2-isopropylphenol], the IC50 in data set [1] (setting [8]) stood at 120 ± 15 µM.

On to `COC1=C(OC)C(=O)C(C/C=C(\C)CC/C=C(\C)CC/C=C(\C)CC/C=C(\C)CC/C=C(\C)CC/C=C(\C)CC/C=C(\C)CC/C=C(\C)CC/C=C(\C)CCC=C(C)C)=C(C)C1=O` [Ubiquinone], for which, in data set [2], the “incidence of musculoskeletal toxicity of lovastatin” value is listed as “did not decrease” and the “severity of musculoskeletal toxicity of lovastatin” value is recorded as “significantly decreased”.

`Cc1c(C)c2c(c(C)c1O)CCC(C)(CCCC(C)CCCC(C)CCCC(C)C)O2` (stereo not drawn) [d1-α-Tocopherol, 2,5,7,8-tetramethyl-2-(4,8,12-trimethyltridecyl)-chroman-6-ol]: the IC50 in data set [1] (setting [7]) was more than 1600 µM. For the same compound, the “impact on cell number (FIG. 1)” value in data set [1] (viable cells at 48 hours after addition) is “no impact on cell number”. Further, the “body weight at the time of tumor implant” value in the data set on B16(F10) melanoma is listed as “significantly lower”.

Regarding `CC(C)=CCCC(C)=CCCC(C)=CCCC1CCc2cc(O)ccc2O1` (stereo not drawn) [d-2-desmethyl Tocotrienol, 2-(4,8,12-trimethyltrideca-3,7,11-trienyl)-chroman-6-ol], the IC50 in data set [1] (setting [8]) was 0.9 µM.

Take `C=C(C)[C@H]1CC=C(C)CC1` [d-Limonene, [R]4-isopropenyl-1-methyl-1-cyclohexene]: the IC50 in data set [1] (setting [8]) is 450 µM.

Consider `CC(C)=CCCC(C)=CCCC(C)=CCCC1(C)CCc2c(C)c(O)c(C)c(C)c2O1` (stereo not drawn) [d-α-Tocotrienol, 2,5,7,8-tetramethyl-2-(4,8,12-trimethyltrideca-3,7,11-trienyl)-chroman-6-ol], for which the IC50 in data set [1] (setting [8]) stood at 110 µM.

With `CC(C)=CCCC(C)=CCCC(C)=CCCC1(C)CCc2cc(O)cc(C)c2O1` (stereo not drawn) [d-δ-Tocotrienol, 2,8-dimethyl-2-(4,8,12-trimethyltrideca-3,7,11-trienyl)-chroman-6-ol], in data set [1] (setting [8]), the IC50 was found to be 10 µM.

For `CC(=O)C=CC1=C(C)CCCC1(C)C` [β-Ionone], the IC50 was 140 ± 23 µM in data set [1] (setting [8]) and 140 µM in data set [4]. The “Days survival, Mean” value in data set [3] (2 mmol/kg diet, n = 12) is recorded as 18.27^a Days. Besides, the “Days survival, Median” value in data set [3] (2 mmol/kg diet, n = 12) amounted to 23.0 days. Further, the “growth of established B16 melanomas” value in data set [3] (diet providing 7 μmol/d) is “suppressed”. Also, in data set [3] (experimental diets versus control, P<0.03), the “duration of host survival” value is given as “significantly increased”. Moreover, the “reduction of 48 hour cell count” value is 10% in the data set on B16 melanoma cells (50 μmol/L), 31% in the data set with B16 melanoma cells (75 μmol/L), 16% in the data set on B16 melanoma cells (100 μmol/L) and 65% in the data set with B16 melanoma cells (150 μmol/L). Besides, the results for the Growth in data set [5] (50 μmol/L), in data set [5] (100 μmol/L) and in data set [5] (150 μmol/L) were 90 % of Control, 84 % of Control and 68 % of Control, respectively. Further, the “decrease in cell growth” value in data set [5] (150 μM) is reported as 32%. Also, in data set [6], the “growth of implanted murine melanoma B16F10 tumors” value is given as “suppressed”.
